We go through 11 molecules from PubChem BioAssay (NCI).

Molecules are shown by their SMILES.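 Five compound concentrations were applied to cells in 96-well plates for 48 hours; endpoints were derived by simple linear interpolation of the resulting dose-response curve. Abbreviation: GI50, concentration required for 50% inhibition of growth. TGI: concentration producing complete growth inhibition.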

Some test systems named below: DMS 273 small cell lung; LXFL 529 NSCLC; RXF-631 renal; HOP-18 NSCLC; DMS 114 small cell lung; KM20L2 colon; DLD-1 colon; M19-MEL melanoma; SN12K1 renal; P388/ADR leukemia; P388 leukemia.
Assay in all cases: NCI tumour cell line growth inhibition, 48 h

On to `Cc1ccc(Nc2ccc(Nc3ccc(C)cc3S(=O)(=O)O)c3c2C(=O)c2ccccc2C3=O)c(S(=O)(=O)O)c1`, for which the TGI in the test on DMS 273 small cell lung, with LXFL 529 NSCLC, in the test with RXF-631 renal, with HOP-18 NSCLC, with DMS 114 small cell lung and in the test on KM20L2 colon was over 100 µM throughout. The same molecule displayed a TGI in the test with DLD-1 colon of over 100 µM.

For `Cc1oc2c(C)c3oc(=O)cc(C)c3cc2c1CN`, the TGI in the test on LXFL 529 NSCLC was over 100 µM; in the test with RXF-631 renal, 90.4 µM; with HOP-18 NSCLC, over 100 µM; in the test with M19-MEL melanoma, over 100 µM; in the test on DMS 114 small cell lung, over 100 µM; in the test with KM20L2 colon, over 100 µM. This molecule also returned a TGI in the test with DLD-1 colon of over 100 µM.

In the case of `NC(CNc1ccc(O)cc1)C(=O)O` (stereo not drawn), the TGI is over 100 µM with DMS 273 small cell lung; over 100 µM with LXFL 529 NSCLC; over 100 µM in the test on RXF-631 renal; over 100 µM in the test with HOP-18 NSCLC; 86.3 µM in the test on M19-MEL melanoma; over 100 µM with DMS 114 small cell lung. Further, the TGI with KM20L2 colon and with DLD-1 colon was over 100 µM in each case.

`CCCN1C(=O)/C(=C(/O)C(=O)OCC)C(c2ccc(OC)c(OC)c2)C1=O` (stereo not drawn): the TGI in the test on DMS 273 small cell lung, in the test with SN12K1 renal, in the test on P388/ADR leukemia, with P388 leukemia, in the test on HOP-18 NSCLC and in the test on M19-MEL melanoma was over 100 µM each time. Besides, the TGI in the test with DMS 114 small cell lung, in the test with KM20L2 colon and in the test on DLD-1 colon was over 100 µM each time.

`C/C(=C/c1c(C)[nH]c(=O)[nH]c1=O)C(=O)O`: the TGI is over 1380 µM with DMS 273 small cell lung; over 1380 µM with SN12K1 renal; 1370 µM in the test with P388/ADR leukemia; over 1370 µM in the test on P388 leukemia; over 1380 µM in the test with HOP-18 NSCLC; over 1380 µM in the test with M19-MEL melanoma. Further, the TGI is over 1380 µM in the test on DMS 114 small cell lung, over 1370 µM in the test on KM20L2 colon and over 1380 µM with DLD-1 colon. Moreover, the GI50 with P388 leukemia was over 1370 µM.

`CC(C)(Oc1ccc(C(=O)c2ccc(Cl)cc2)cc1Cl)C(=O)N1CCN(c2ccccc2)CC1`: the TGI in the test on DMS 273 small cell lung, in the test with LXFL 529 NSCLC, in the test with HOP-18 NSCLC, in the test with M19-MEL melanoma, in the test with DMS 114 small cell lung and in the test on KM20L2 colon was over 100 µM each time. In the test on DLD-1 colon, the TGI is over 100 µM.

`COc1ccc(N2C(=O)C3c4[nH]c5ccccc5c4C4CCC(C(C)(C)C)CC4C3C2=O)cc1OC` (stereo not drawn): the TGI in the test on DMS 273 small cell lung is 31.2 µM; in the test on LXFL 529 NSCLC it was 32.5 µM; in the test with HOP-18 NSCLC, 40.8 µM; in the test with M19-MEL melanoma it was over 100 µM; in the test with KM20L2 colon, over 100 µM; in the test with DLD-1 colon it was 39.9 µM.

For `COc1c(Cl)c(Cl)c(OC)c2c1C(=O)C=CC2=O`, the TGI in the test with DMS 273 small cell lung is 31.5 µM; in the test with LXFL 529 NSCLC, 29.3 µM; in the test with HOP-18 NSCLC, over 100 µM; in the test on M19-MEL melanoma, 32.3 µM; in the test on DMS 114 small cell lung it was 29.7 µM; with KM20L2 colon, over 100 µM. This molecule displayed a TGI in the test on DLD-1 colon of 29.5 µM.

`Oc1ccccc1C=Nc1ccccc1N=Cc1ccccc1O`: the TGI in the test with DMS 273 small cell lung, in the test with LXFL 529 NSCLC, in the test on M19-MEL melanoma, in the test with DMS 114 small cell lung and in the test on KM20L2 colon was over 100 µM each time.

With `CCOC(=O)CN(Cc1ccccc1)Cc1c(C(=O)c2ccccc2)c2ccccc2n1C(=O)c1ccccc1`, the TGI in the test with DMS 273 small cell lung, in the test on LXFL 529 NSCLC, in the test with M19-MEL melanoma, with DMS 114 small cell lung, in the test on KM20L2 colon and with DLD-1 colon was over 100 µM each time.

For `COc1cc(C(CC(OC)OC)=C(C#N)C#N)cc(OC)c1OC`, the TGI was 27.6 µM in the test on DMS 273 small cell lung; over 100 µM in the test with LXFL 529 NSCLC; 33.4 µM with M19-MEL melanoma; 87.6 µM in the test on DMS 114 small cell lung; 69.4 µM in the test with KM20L2 colon; 13.7 µM in the test with DLD-1 colon.
